From ChEMBL document CHEMBL4393680, “Design, synthesis and biological evaluation of novel thioquinazolinone-based 2-aminobenzamide derivatives as potent histone deacetylase (HDAC) inhibitors” (Eur J Med Chem, 2019)
The source made the active and inactive calls. The calls are words filed in the database; no cut-off is given here.

What was measured:
[1] = test system: HCT-116; test: Antiproliferative activity against human HCT116 cells assessed as reduction in cell growth at 8 uM incubated for 72 hrs by CCK-8 assay relative to control; type: functional; conditions: HCT-116, 72 h
[2] = test system: SMMC-7721; test: Cell cycle arrest in human SMMC7721 cells assessed as accumulation at S phase at 4 uM incubated for 48 hrs by propidium iodide staining based flow cytometry (Rvb=6.83%); type: functional
[3] = test system: SMMC-7721; test: Cell cycle arrest in human SMMC7721 cells assessed as accumulation at G2/M phase incubated for 48 hrs by propidium iodide staining-based flow cytometry; type: functional
[4] = test system: A-375; test: Antiproliferative activity against human A375 cells assessed as reduction in cell growth at 8 uM incubated for 72 hrs by CCK-8 assay relative to control; type: functional; conditions: A-375, 72 h
[5] = test system: A549; test: Antitumor activity against human A549 cells xenografted in BALB/C mouse assessed as tumor growth inhibition at 25 mg/kg, ip bid for 21 days measured at 3 days interval during compound dosing relative to control; type: functional; conditions: read-out: TGI
[6] = test system: A549; test: Antitumor activity against human A549 cells xenografted in BALB/C mouse assessed as reduction in tumor size at 25 mg/kg, ip bid for 21 days measured at 3 days interval during compound dosing by visual analysis; type: functional, organism-based
[7] = test system: HCT-116; test: Antiproliferative activity against human HCT116 cells assessed as reduction in cell growth incubated for 72 hrs by CCK-8 assay; type: functional, cell-based; conditions: HCT-116, 72 h
[8] = Toxicity in BALB/C mouse xenografted with human A549 cells assessed as reduction in body weight at 25 mg/kg, ip bid for 21 days measured at 3 days interval during compound dosing; type: organism-based; conditions: in vivo
[9] = test system: SMMC-7721; test: Cell cycle arrest in human SMMC7721 cells assessed as accumulation at G0/G1 phase at 4 uM incubated for 48 hrs by propidium iodide staining based flow cytometry (Rvb=77%); type: functional
[10] = test system: SMMC-7721; test: Induction of apoptosis in human SMMC7721 cells incubated for 48 hrs by Annexin-V-FITC/propidium iodide staining based flow cytometry; type: functional, cell-based
[11] = test system: SMMC-7721; test: Induction of apoptosis in human SMMC7721 cells assessed as viable cells at 0.25 uM incubated for 48 hrs by Annexin-V-FITC/propidium iodide staining based flow cytometry (Rvb=93.5%); type: functional; conditions: SMMC-7721, 48 h, read-out: Activity
[12] = test system: HCT-116; test: Antiproliferative activity against human HCT116 cells assessed as reduction in cell growth at 2 uM incubated for 72 hrs by CCK-8 assay relative to control; type: functional; conditions: HCT-116, 72 h
[13] = molecular target: T1, Protein deacetylase HDAC6 (Homo sapiens, UniProt Q9UBN7); test: Inhibition of human recombinant His-tagged HDAC6 expressed in baculovirus infected insect cells using FLUOR DE LYS SIRT1 as substrate preincubated for 10 mins followed by substrate addition and measured after 30 mins by fluorescence method
T1 sequence (Q9UBN7 whole entry): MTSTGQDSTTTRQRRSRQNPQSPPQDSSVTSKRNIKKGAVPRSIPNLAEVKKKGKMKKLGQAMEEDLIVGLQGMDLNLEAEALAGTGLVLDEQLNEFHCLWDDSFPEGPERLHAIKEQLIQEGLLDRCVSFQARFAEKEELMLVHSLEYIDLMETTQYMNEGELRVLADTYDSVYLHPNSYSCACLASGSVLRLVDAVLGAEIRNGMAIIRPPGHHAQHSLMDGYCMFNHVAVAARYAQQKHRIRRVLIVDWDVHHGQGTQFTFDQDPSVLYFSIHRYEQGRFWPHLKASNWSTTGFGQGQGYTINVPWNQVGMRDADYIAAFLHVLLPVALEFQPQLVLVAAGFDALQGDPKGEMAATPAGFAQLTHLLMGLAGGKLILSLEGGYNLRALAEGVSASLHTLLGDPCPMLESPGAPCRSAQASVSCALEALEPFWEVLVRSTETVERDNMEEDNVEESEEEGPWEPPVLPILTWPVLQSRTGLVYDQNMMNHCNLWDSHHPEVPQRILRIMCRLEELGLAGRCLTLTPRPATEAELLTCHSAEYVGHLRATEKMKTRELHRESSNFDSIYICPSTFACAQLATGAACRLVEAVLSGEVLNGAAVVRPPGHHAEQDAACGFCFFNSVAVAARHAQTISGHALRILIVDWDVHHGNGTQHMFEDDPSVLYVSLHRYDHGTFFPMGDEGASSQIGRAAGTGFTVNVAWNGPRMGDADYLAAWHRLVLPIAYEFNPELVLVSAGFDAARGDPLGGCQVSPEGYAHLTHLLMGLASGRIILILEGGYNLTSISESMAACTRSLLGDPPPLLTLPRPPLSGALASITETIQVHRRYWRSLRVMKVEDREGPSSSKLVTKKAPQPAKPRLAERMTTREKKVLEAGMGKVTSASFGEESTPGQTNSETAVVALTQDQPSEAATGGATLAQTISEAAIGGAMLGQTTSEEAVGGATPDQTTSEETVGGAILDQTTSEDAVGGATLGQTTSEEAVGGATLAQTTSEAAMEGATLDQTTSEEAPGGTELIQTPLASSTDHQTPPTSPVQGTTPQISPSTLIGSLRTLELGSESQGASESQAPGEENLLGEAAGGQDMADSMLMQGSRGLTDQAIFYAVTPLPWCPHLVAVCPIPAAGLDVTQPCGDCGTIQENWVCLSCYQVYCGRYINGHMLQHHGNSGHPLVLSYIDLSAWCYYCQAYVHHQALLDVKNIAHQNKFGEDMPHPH

[14] = test system: SMMC-7721; test: Induction of apoptosis in human SMMC7721 cells assessed as viable cells at 1 uM incubated for 48 hrs by Annexin-V-FITC/propidium iodide staining based flow cytometry (Rvb=93.5%); type: functional; conditions: SMMC-7721, 48 h, read-out: Activity

Row | Structure (SMILES) | inhibition at 8 µM [1] [%] | Activity [2] [%] | Activity [3] | inhibition at 8 µM [4] [%] | inhibition in vivo at 25 mg/kg [5] [%] | Activity [6] | IC50 [7] [nM] | Activity [8] | Activity [9] [%] | Activity [10] | viability at 0.25 µM [11] [%] | inhibition at 2 µM [12] [%] | IC50 [13] [nM] | viability at 1 µM [14] [%]
1 | COc1ccc2c(=O)n(C)c(SCc3ccc(C(=O)Nc4ccccc4N)cc3)nc2c1 | 91.8 | 22.52 | Dose-dependent effect | 89.4 | 62.5 | Active | 750 | Non-Toxic | 46.09 | Dose-dependent effect | 66 | 73.1 | > 40000 | 32.3
2 | COc1ccc2c(=O)n(-c3ccccc3Cl)c(SCc3ccc(C(=O)Nc4ccccc4N)cc3)nc2c1 | 83.3 | 45.18 |  | 78.7 |  |  | 2380 |  | 27.52 | Dose-dependent effect | 68.3 | 43.7 | > 40000 | 65.6
3 | Cn1c(SCc2ccc(C(=O)Nc3ccccc3N)cc2)nc2cc(Br)ccc2c1=O | 88.4 | 24.16 |  | 72.9 |  |  | 1220 |  | 56.05 | Dose-dependent effect | 79.4 | 72.4 | > 40000 | 49.5
4 | CCn1c(SCc2ccc(/C=C/C(=O)Nc3ccccc3N)cc2)nc2cc(OC)ccc2c1=O | 80.5 | 28.7 |  | 89.5 |  |  | 1430 |  | 53.62 | Dose-dependent effect | 79.3 | 67.3 | > 40000 | 45.8
